# Results as given in ChEMBL document CHEMBL5154926, “Discovery of a Novel Series of Imipridone Compounds as Homo sapiens Caseinolytic Protease P Agonists with Potent Antitumor Activities In Vitro and In Vivo” (J Med Chem, 2022).
# The source made the active and inactive calls. No cut-off for these calls is given here.
# Experiments:
# [1] = biological target: T1, ATP-dependent Clp protease proteolytic subunit, mitochondrial (Homo sapiens, UniProt Q16740); details: filed as agonist, dose 100.0 µM, time 30.0 min
# [2] = biological target: T1, ATP-dependent Clp protease proteolytic subunit, mitochondrial; details: filed as agonist
# Description: Binding affinity to human CLpP assessed as change in entropy by ITC method
# [3] = biological target: T1, ATP-dependent Clp protease proteolytic subunit, mitochondrial; details: filed as agonist; remark: listed apart in the source
# Description: Binding affinity to human CLpP assessed as change in enthalpy by ITC method
# Homo sapiens [4] = species: Homo sapiens; details: filed as agonist
# Description: Binding affinity to human CLpP Y138F/Q107A double mutant assessed as change in enthalpy by ITC method
# Homo sapiens [5] = species: Homo sapiens; details: filed as agonist; remark: listed apart in the source
# Description: Binding affinity to human CLpP Y138F/Q107A double mutant assessed as change in entropy by ITC method
# HCT-116 [6] = details: Homo sapiens, dose 12.5-50 nM, time 14.0 day
# [7] = Cmax in Sprague-Dawley rat plasma at 5 mg/kg, iv after 0.083 to 24 hrs by LC-MS analysis; assay type: ADME, organism-based; parameters: dose 5 mg/kg, time 0.083-24 hrs, route iv
# [8] = Cmax in Sprague-Dawley rat plasma at 15 mg/kg, po after 0.25 to 24 hrs by LC-MS analysis; assay type: ADME, organism-based; parameters: time lower 0.25 hrs, dose 15 mg/kg, time upper 24 hrs, route po
# [9] = Tmax in Sprague-Dawley rat plasma at 15 mg/kg, po after 0.25 to 24 hrs by LC-MS analysis; assay type: ADME, organism-based; details: time 0.25-24 hrs
# [10] = Terminal half life in Sprague-Dawley rat plasma at 5 mg/kg, iv after 0.083 to 24 hrs by LC-MS analysis; assay type: ADME, organism-based; details: time 0.083-24 hrs, read-out: beta t1/2 (converted)
# [11] = Terminal half life in Sprague-Dawley rat plasma at 15 mg/kg, po after 0.25 to 24 hrs by LC-MS analysis; assay type: ADME, organism-based; details: time 0.25-24 hrs, read-out: beta t1/2 (converted)
# [12] = Clearance in Sprague-Dawley rat plasma at 5 mg/kg, iv after 0.083 to 24 hrs by LC-MS analysis; assay type: ADME, organism-based; details: time 0.083-24 hrs
# [13] = MRT (0 to 24 hrs) in Sprague-Dawley rat plasma at 5 mg/kg, iv after 0.083 to 24 hrs by LC-MS analysis; assay type: ADME, organism-based; details: time 0.083-24 hrs
# [14] = MRT (0 to 24 hrs) in Sprague-Dawley rat plasma at 15 mg/kg, po after 0.25 to 24 hrs by LC-MS analysis; assay type: ADME, organism-based; details: time 0.25-24 hrs
# [15] = Oral bioavailability in Sprague-Dawley rat plasma at 15 mg/kg after 0.25 to 24 hrs by LC-MS analysis; assay type: ADME, organism-based; details: time 0.25-24 hrs
# in vivo [16] = details: Sprague-Dawley, rat, iv, 5 mg/kg
# in vivo [17] = details: Sprague-Dawley, rat, po, 15 mg/kg
# MDA-MB-231 = experiment: Antiproliferative activity against human MDA-MB-231 cells incubated for 48 hrs by CCK-8 assay; assay type: functional, cell-based; details: MDA-MB-231, 48 h
# A549 = experiment: Antiproliferative activity against human A549 cells incubated for 48 hrs by CCK-8 assay; assay type: functional, cell-based; details: A549, 48 h
# [18] = Antiproliferative activity against human HEK293 cells incubated for 48 hrs by CCK-8 assay; assay type: toxicity, cell-based
# Raji = experiment: Antiproliferative activity against human Raji cells incubated for 48 hrs by CCK-8 assay; assay type: functional, cell-based
# U-251 = experiment: Antiproliferative activity against human U-251 cells incubated for 48 hrs by CCK-8 assay; assay type: functional, cell-based; details: U-251, 48 h
# [19] = Antiproliferative activity against rat H9c2 cells incubated for 48 hrs by CCK-8 assay; assay type: toxicity, cell-based
# HCT-116 [20] = experiment: Potency index, ratio of ONC201 IC50 to test compound IC50 for antiproliferative activity against human HCT-116 cells by CCK-8 assay; assay type: functional
# HCT-116 [21] = experiment: cells; details: Homo sapiens, HCT-116, 48 h
# Description: Antiproliferative activity against human HCT-116 cells incubated for 48 hrs by CCK-8 assay
# HT-29 = experiment: cells; details: Homo sapiens, HT-29, 48 h
# Description: Antiproliferative activity against human HT-29 cells incubated for 48 hrs by CCK-8 assay
# SW-620 = experiment: cells; details: Homo sapiens, SW-620, 48 h
# Description: Antiproliferative activity against human SW-620 cells incubated for 48 hrs by CCK-8 assay
# DLD-1 = experiment: cells; details: Homo sapiens, DLD-1, 48 h
# Description: Antiproliferative activity against human DLD-1 cells incubated for 48 hrs by CCK-8 assay
# HCT-15 = experiment: cells; details: Homo sapiens, HCT-15, 48 h
# Description: Antiproliferative activity against human HCT-15 cells incubated for 48 hrs by CCK-8 assay
# SW480 = experiment: cells; details: Homo sapiens, SW480, 48 h
# Description: Antiproliferative activity against human SW480 cells incubated for 48 hrs by CCK-8 assay
# [22] = Acute toxicity in BALB/c mouse assessed as adverse effect at 100 mg/kg, ig administered as single dose measured every day for 14 days; assay type: organism-based; details: in vivo, po, 336 h, time 14 day
# [23] = Acute toxicity in BALB/c mouse assessed as body weight loss at 100 mg/kg, ig administered as single dose measured every day for 14 days; assay type: organism-based; details: in vivo, po, 336 h, time 14 day
# [24] = Acute toxicity in BALB/c mouse assessed as change in ALT level in blood at 100 mg/kg, ig administered as single dose measured after 14 days; assay type: organism-based; details: in vivo, po, 336 h, time 14 day
# [25] = Acute toxicity in BALB/c mouse assessed as change in AST level in blood at 100 mg/kg, ig administered as single dose measured after 14 days; assay type: organism-based; details: in vivo, po, 336 h, time 14 day
# [26] = Acute toxicity in BALB/c mouse assessed as change in UREA in blood at 100 mg/kg, ig administered as single dose measured after 14 days; assay type: organism-based; details: in vivo, po, 336 h, time 14 day
# [27] = Acute toxicity in BALB/c mouse assessed as change in CREA level in blood at 100 mg/kg, ig administered as single dose measured after 14 days; assay type: organism-based; details: in vivo, po, 336 h, time 14 day
# [28] = Acute toxicity in BALB/c mouse assessed as change in CKMB level in blood at 100 mg/kg, ig administered as single dose measured after 14 days; assay type: organism-based; details: in vivo, po, 336 h, time 14 day
# [29] = Acute toxicity in BALB/c mouse assessed as pathological damage in heart at 100 mg/kg, ig administered as single dose measured after 14 days by hematoxylin and eosin staining method; assay type: organism-based; details: in vivo, po, 336 h, time 14 day
# [30] = Acute toxicity in BALB/c mouse assessed as pathological damage in liver at 100 mg/kg, ig administered as single dose measured after 14 days by hematoxylin and eosin staining method; assay type: organism-based; details: in vivo, po, 336 h, time 14 day
# [31] = Acute toxicity in BALB/c mouse assessed as pathological damage in spleen at 100 mg/kg, ig administered as single dose measured after 14 days by hematoxylin and eosin staining method; assay type: organism-based; details: in vivo, po, 336 h, time 14 day
# [32] = Acute toxicity in BALB/c mouse assessed as pathological damage in lung at 100 mg/kg, ig administered as single dose measured after 14 days by hematoxylin and eosin staining method; assay type: organism-based; details: in vivo, po, 336 h, time 14 day
# [33] = Acute toxicity in BALB/c mouse assessed as pathological damage in kidney at 100 mg/kg, ig administered as single dose measured after 14 days by hematoxylin and eosin staining method; assay type: organism-based; details: in vivo, po, 336 h, time 14 day
# [34] = Toxicity in BALB/c nude mouse xenografted with human HCT-116 cells assessed as body weight loss at 5 mg/kg, po administered twice a week for 19 days and measured every other day; assay type: organism-based; details: in vivo, 456 h, time 19 day
# [35] = Toxicity in BALB/c nude mouse xenografted with human HCT-116 cells assessed as body weight loss at 10 mg/kg, po administered twice a week for 19 days and measured every other day; assay type: organism-based; details: in vivo, 456 h, time 19 day
# HCT-116 [36] = experiment: Antitumor activity in human HCT-116 cells xenografted in BALB/c nude mouse assessed tumor growth inhibition at 5 mg/kg, po administered twice a week for 19 days and measured every other day; assay type: functional; details: HCT-116, 456 h, time 19 day, read-out: TGI
# HCT-116 [37] = experiment: Antitumor activity in human HCT-116 cells xenografted in BALB/c nude mouse assessed tumor growth inhibition at 10 mg/kg, po administered twice a week for 19 days and measured every other day; assay type: functional; details: HCT-116, 456 h, time 19 day, read-out: TGI
# HCT-116 [38] = experiment: Antitumor activity in human HCT-116 cells xenografted in BALB/c nude mouse assessed tumor growth inhibition at 20 mg/kg, po administered twice a week for 19 days and measured every measured every other day; assay type: functional; details: HCT-116, 456 h, time 19 day, read-out: TGI
# [39] = Toxicity in BALB/c nude mouse xenografted with human HCT-116 cells assessed as body weight loss at 40 mg/kg, po administered twice a week for 19 days and measured every other day; assay type: organism-based; details: in vivo, 456 h, time 19 day
# T1 sequence (Q16740 whole entry): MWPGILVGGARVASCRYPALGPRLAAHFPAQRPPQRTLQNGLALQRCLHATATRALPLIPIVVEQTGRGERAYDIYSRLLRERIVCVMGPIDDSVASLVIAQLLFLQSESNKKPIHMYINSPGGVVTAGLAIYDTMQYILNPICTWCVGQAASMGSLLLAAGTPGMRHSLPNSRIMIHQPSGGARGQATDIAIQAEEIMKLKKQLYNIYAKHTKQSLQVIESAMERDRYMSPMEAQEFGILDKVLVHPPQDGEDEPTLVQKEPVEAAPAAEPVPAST
smiles,measurement,setting,value
O=c1nc2n(c3c1CN(Cc1ccccc1)CC3)CCN2Cc1ccc(F)c(Br)c1,ΔTm,[1],20.9 °C
same,deltaS,[2],-77.4 J/mol.K
same,deltaH,[3],-62.5 kJ/mol
same,deltaH,Homo sapiens [4],-11.4 kJ/mol
same,deltaS,Homo sapiens [5],54.3 J/mol.K
same,inhibition,HCT-116 [6],Active
Cc1ccccc1CN1C(=O)C2=C(CCN(Cc3ccccc3)C2)N2CCN=C12.Cl.Cl.O,Cmax,[7],2770 ng/mL
same,Cmax,[8],566 ng/mL
same,Tmax,[9],25.2 min
same,half-life,[10],54.6 min
same,half-life,[11],63 min
same,clearance,[12],42.7 mL/min/kg
same,MRT last,[13],51.6 min
same,MRT last,[14],1.46 h
same,bioavailability,[15],15.2%
same,AUC(0-t),in vivo [16]; in vivo,1960 ng·h/mL
same,AUC(0-t),in vivo [17]; in vivo,894 ng·h/mL
Cc1ccccc1CN1CCn2c1nc(=O)c1c2CCN(Cc2ccccc2)C1,IC50,MDA-MB-231,10.5 µM
same,IC50,A549,2140 nM
same,IC50 at 48 h,[18],> 50 µM
same,IC50,Raji,1060 nM
same,IC50,U-251,2060 nM
same,IC50 at 48 h,[19],> 50 µM
same,Ratio IC50,HCT-116 [20],10
same,IC50,HCT-116 [21],400 nM
same,IC50,HT-29,5.3 µM
same,IC50,SW-620,640 nM
same,IC50,DLD-1,520 nM
same,IC50,HCT-15,1280 nM
same,IC50,SW480,1100 nM
Cl.Cl.O.O=c1nc2n(c3c1CN(Cc1ccccc1)CC3)CCN2Cc1ccc(F)c(Br)c1,Activity,[22],Non-Toxic
same,Activity,[23],Non-Toxic
same,Activity,[24],Non-Toxic
same,Activity,[25],Non-Toxic
same,Activity,[26],Non-Toxic
same,Activity,[27],Non-Toxic
same,Activity,[28],Non-Toxic
same,Activity,[29],Non-Toxic
same,Activity,[30],Non-Toxic
same,Activity,[31],Non-Toxic
same,Activity,[32],Non-Toxic
same,Activity,[33],Non-Toxic
same,Cmax,[7],4010 ng/mL
same,Cmax,[8],2790 ng/mL
same,Tmax,[9],19.8 min
same,half-life,[10],76.2 min
same,half-life,[11],61.8 min
same,clearance,[12],35.7 mL/min/kg
same,MRT last,[13],33.6 min
same,MRT last,[14],1.29 h
same,bioavailability,[15],61.1%
same,Activity,[34],27.7%
same,Activity,[35],23.9%
same,inhibition in vivo at 5 mg/kg,HCT-116 [36],56%
same,inhibition in vivo at 10 mg/kg,HCT-116 [37],60%
same,inhibition in vivo at 20 mg/kg,HCT-116 [38],69%
same,Activity,[39],25%
same,AUC(0-t),in vivo [16]; plasma,2330 ng·h/mL
same,AUC(0-t),in vivo [17]; plasma,4270 ng·h/mL
